As a reminder, the LD50 is the dose at which mortality reaches 50%.

Experimental findings from patent US4332805A, “Decahydroquinolinol derivatives and methods of treating cardiac arrythmias or inducing local anaesthesia with them” (priority 1979, dated 1982) are described below.

Structures can show the parent of a compound that is named as a salt. Where two headings read alike, the source gives them in different places. Bounds are passed on as bounds.

Series [1] can be described thus: protection against toxic effects of epinephrine (antiadrenergic properties). Conditions: mice, 50 mg/kg intragastric, 30 minutes before 3 mg/kg i.v. epinephrine. The format is in vivo. The protocol:
Tests carried out with Compound A have shown that a dose of 50 mg/kg administered by intragastric route to mice 30 minutes before the intravenous injection of 3 mg/kg of epinephrine gave no protection against the toxic effects of this catecholamine.

Series [2] is described as follows: LAWSON test: protection against chloroform-induced ventricular fibrillation. It is filed as in vivo. The conditions noted are these: mice, 75 mg/kg intragastric.
Series [3] can be described thus: acute toxicity. The conditions noted are these: rat, in vivo. The source says:
Acute toxicity tests were undertaken with Compound A on mice and rats.

The nature of a further series: convulsant dose. It is filed as in vivo. The conditions noted are these: mice per os; dog i.v.
A short description of series [4]: hypotensive activity / myocardial contractility. Conditions: in vivo.
Series [5] is described as follows: local anaesthesia, CHANCE and LOBSTEIN technique (eyelid closure after touching cornea). The format is in vivo, guinea-pig. Conditions: for local anaesthesia, % of animals / local anaesthesia, % of animals protected: guinea-pig eye; for local anaesthesia, % of animals: 0.1% solution, 5 minutes after administration; for local anaesthesia, % of animals protected: 0.5% solution. The protocol: In this way, the percentage of locally anaesthetized animals were determined with respect to both the dose of compound given and the length of time elapsing after administration.

Series [6] in a line: LAWSON test: protection against chloroform-induced ventricular fibrillation. It is filed as in vivo, mice. The conditions noted are these: Mus musculus, po. The protocol:
The arrhythmia was induced, in this test, by inhalation of chloroform until breathing stopped.
For each dose of the substance to be studied, batches of 10 female mice, each of about 20 g, were used. These mice had been fasting for 18 hours before the test. A batch of 10 animals was used as control group.
A dose of the compound to be studied was first administered by intragastric route except to the controls which only received the solvent used with the compound in question. Thirty minutes later, the animals were placed under a dome-shaped receptacle containing a high concentration of chloroform obtained by means of a strongly impregnated pad.
The animals were removed when totally asphyxiated (about 2 minutes later), the thorax was rapidly opened and the ventricular rhythm observed. The dose of the compound under study which protected 50% of the animals against ventricular fibrillation was then determined.
This protective dose is expressed as AD50 in mg/kg in the following Table. […]
Another comparative test was performed under the same conditions with
several compounds included within the scope of U.S. Pat. No. 3,882,129 at
the single dose of 100 mg/kg by intragastric route.
The following results were obtained which are expressed in percentage of protection obtained against the arrhythmic effect at the studied dose: […]

Series [7] can be described thus: acute toxicity. The conditions noted are these: mouse, in vivo, mice.
Series [8] in a line: arrhythmia-inducing and lethal dose in continuous venous perfusion. It is filed as in vivo. The conditions noted are these: anaesthetized dog.
The nature of series [9]: ventricular fibrillation provoked by chloroform or by calcium chloride. Conditions: in vivo.
Series [10] is described as follows: motor activity (spontaneous motility) / sedation. It is filed as in vivo, mouse.
Setting [11] is: 30 minutes after administration.
The mark [12] stands for this setting: 0.5 h, female mice, intragastric, 30 minutes before chloroform, salts (hydrochloride), read-out: AD50 (dose protecting 50% of the animals against ventricular fibrillation).

In the case of `NC(=O)O[C@@H]1CCN(CCCOc2ccc(F)cc2)[C@H]2CCCC[C@H]12` (relative stereo) [Compound A, 4-Carbamoyloxy-1-[3-(4-fluoro-phenoxy)-propyl]-trans-decahydroquinoline (axial form)], the “protection against the toxic effects of epinephrine” value in [1] is on record as “no protection”. Further, the “% of protection” value in series [2] (setting [11]) is listed as 80%; in [2] (60 minutes after administration), 65%; in series [2] (120 minutes after administration), 60%; in series [2] (180 minutes after administration), 45%; in [2] (240 minutes after administration) it was 30%. The LD50 in “acute toxicity [3]” (iv) is 47 mg/kg; in “acute toxicity [3]” (po) it was greater than 2000 mg/kg; in “acute toxicity [7]” (po, intragastric) it was 750 mg/kg; in “acute toxicity [7]” (intravenous) it was 42.5 mg/kg. The “safety margin between effective antiarrhythmic dose and convulsant dose” value in the series “convulsant dose” is given as “good safety margin”. The “hypotensive activity and depression of myocardial contractility” value in series [4] is recorded as “neither a hypotensive agent since its mechanism of action does not result from antiadrenergic properties nor is it a depressant of myocardial contractility”. Further, in series [5] (guinea-pig), the “local anaesthetic activity compared with lidocaine” value was “more active than lidocaine as a local anaesthetizing agent and exerts its effects over a longer period of time”. Also, the “local anaesthesia, % of animals” value in [5] turned out to be 58%. Moreover, in [5] (setting [11]), the “local anaesthesia, % of animals protected” value amounted to 35%. In addition, the ED50 was determined as 45 mg/kg in series [6] (setting [12]) and 45 mg/kg in series [6] (mice, per os, read-out: Antiarrhythmic dose (LAWSON AD50 test)). Also, in [8], the lethal dose is 84.1 ± 7.1 mg/kg. The TD50 in series [8] (in vivo, iv) was determined as 80.6 ± 6 mg/kg. Besides, the “protection against ventricular fibrillation provoked by chloroform or by calcium chloride” value in series [9] is on record as “provides protection against ventricular fibrillation provoked by chloroform or by calcium chloride”. Also, the “sedative / antiadrenergic at antiarrhythmic doses” value in series [10] (mice, 50 mg/kg intragastric) is “neither sedative nor antiadrenergic at antiarrhythmic doses”. In [10] (mice, 50 mg/kg intragastric, 30 minutes later), the “depression of spontaneous motility” value is “no depression of spontaneous motility”. Besides, the motor activity result in [10] (mouse) is listed as “does not modify motor activity”.

Turning to `CCN(CC)CC(=O)Nc1c(C)cccc1C` [lidocaine, reference compound], the “local anaesthesia, % of animals” value in series [5] worked out at 26%. Besides, in series [5] (15 minutes after administration), the “local anaesthesia, % of animals protected” value is recorded as 35%. For the same compound, in series [6] (0.5 h, read-out: AD50 (dose protecting 50% of the animals against ventricular fibrillation)), the ED50 was determined as 35 mg/kg.

For the compound `CCNC(=O)O[C@@H]1CCN(CCCOc2ccc(F)cc2)[C@H]2CCCC[C@H]12` (relative stereo) [ethyl, 3, O, 4-fluoro-phenyl, axial, 4-(N-Ethylcarbamoyloxy)-1-[3-(4-fluoro-phenoxy)-propyl]-trans-decahydroquinoline hydrochloride (axial form)], the ED50 in [6] (setting [12]) is 50 mg/kg.

On to `O=C(Nc1ccc(Br)cc1)O[C@H]1CCN(CCCOc2ccc(F)cc2)[C@H]2CCCC[C@H]12` (relative stereo) [4-[(4-Bromo-phenyl)-carbamoyloxy]-1-[3-(4-fluoro-phenoxy)-propyl]-trans-decahydroquinoline hydrochloride (equatorial form)], for which the ED50 in [6] (setting [12]) turned out to be 120 mg/kg.
